Molecular target: T1, CmoA (Escherichia coli, UniProt P76290)
T1 construct: R100H versus P76290 (PCR mutation or strain difference); expressed in E. coli Rosetta pLysS (DE3); dimer; residues 19-247 (chain A) and 20-244 (chain B) modelled
Assay: X-ray crystal structure ([…] A); FT-MS of released ligand
Format: binding
Conditions: copurified from E. coli expression host; carboxymethyl carboxylate salt bridge to Arg199; putative active site

T1 sequence (P76290 whole entry R100H, the tested form may be a part): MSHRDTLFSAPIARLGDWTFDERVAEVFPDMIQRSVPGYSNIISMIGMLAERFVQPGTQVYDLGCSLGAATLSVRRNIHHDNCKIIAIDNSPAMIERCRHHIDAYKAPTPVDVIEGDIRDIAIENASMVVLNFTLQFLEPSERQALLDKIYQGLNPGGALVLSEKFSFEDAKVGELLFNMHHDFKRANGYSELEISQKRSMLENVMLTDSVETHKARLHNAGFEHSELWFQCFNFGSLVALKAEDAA

`Nc1ncnc2c1ncn2[C@@H]1O[C@H](C[S+](CC[C@H](N)C(=O)O)CC(=O)O)[C@@H](O)[C@H]1O` (stereo partly drawn) [[(3S)-3-amino-3-carboxypropyl]{[(2S,3S,4R,5R)-5-(6-aminopurin-9-yl)-3,4-dihydroxyoxolan-2-yl]methyl}(carboxymethyl)sulfanium] was tested, and the “X-ray crystal structure (1.73 A); FT-MS of released ligand” value was “both molecules of CmoA contain the novel derivative S-adenosyl-S-carboxymethyl-L-homocysteine (SCM-SAH)”.
